ChEMBL document CHEMBL1201862, “PubChem BioAssay data set” (2004)
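Assay format: 96-well plates, 48-hour exposure. GI50 = concentration required for 50% inhibition of growth.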 Calls of active or inactive are those of the source. No stated cut-off is given here; in the data, active = GI50 up to about 1.1 µM and inactive = higher.

Columns and labels:
Test in all cases: growth of human tumour cells (NCI), 48 h
ACHN = test system: ACHN
CAKI-1 = test system: CAKI-1
DLD-1 = test system: DLD-1
DMS-273 = test system: DMS-273
HCT-15 = test system: HCT-15
HL-60 = test system: HL-60
HT-29 = test system: HT-29
K562 = test system: K562
KM12 = test system: KM12
NCI/ADR-RES = test system: NCI/ADR-RES
OVCAR-4 = test system: OVCAR-4
SK-MEL-5 = test system: SK-MEL-5
SNB-19 = test system: SNB-19
UACC-62 = test system: UACC-62
COLO 205 = test system: COLO 205
NCI-H226 = test system: NCI-H226
SK-MEL-28 = test system: SK-MEL-28
U-251 = test system: U-251
XF498 = test system: XF498
EKVX = test system: EKVX

SMILES	GI50 (ACHN)	GI50 (CAKI-1)	GI50 (DLD-1)	GI50 (DMS-273)	GI50 (HCT-15)	GI50 (HL-60)	GI50 (HT-29)	GI50 (K562)	GI50 (KM12)	GI50 (NCI/ADR-RES)	GI50 (OVCAR-4)	GI50 (SK-MEL-5)	GI50 (SNB-19)	GI50 (UACC-62)	GI50 (COLO 205)	GI50 (NCI-H226)	GI50 (SK-MEL-28)	GI50 (U-251)	GI50 (XF498)	GI50 (EKVX)
CC1CC[P+](c2ccccc2)(c2ccccc2)c2c1ccc1ccccc21 (centres undefined)	9.62 µM (inactive)	6.75 µM (inactive)	3.74 µM (inactive)	0.405 µM (active)	31.9 µM	1.28 µM (inactive)	2.28 µM (inactive)	0.589 µM (active)	1.59 µM (inactive)	> 100 µM (inactive)	6.76 µM (inactive)	0.83 µM (active)	2.44 µM (inactive)	2.51 µM (inactive)						
CCCCCCCCCCCCCC(=O)OC1C(O)C(CO)OC(OC)C1NC(=O)N(CCCl)N=O (centres undefined)	41.4 µM (inactive)	> 100 µM (inactive)	> 100 µM (inactive)	71.1 µM (inactive)	> 100 µM		56.6 µM (inactive)	> 100 µM (inactive)	> 100 µM (inactive)		> 100 µM (inactive)	45.2 µM (inactive)	23.7 µM (inactive)	5.06 µM (inactive)	> 100 µM (inactive)	> 100 µM (inactive)	> 100 µM (inactive)	25.6 µM (inactive)	48.9 µM (inactive)	
COc1cc(/C=C2\CCC(C)/C(=C\c3cc(OC)c(OC)c(OC)c3)C2=O)cc(OC)c1OC (centres undefined)	3.02 µM (inactive)	2.99 µM (inactive)			1.99 µM		3.21 µM (inactive)	2.69 µM (inactive)	2.61 µM (inactive)			2.21 µM (inactive)	4.51 µM (inactive)	1.82 µM (inactive)	2.48 µM (inactive)		4.35 µM (inactive)	4.97 µM (inactive)		3.21 µM (inactive)
CNC(=S)Nc1sc2c(c1C#N)CCCC2	> 75 µM (inactive)	> 75 µM (inactive)			> 75 µM	> 75 µM (inactive)	> 75 µM (inactive)	> 75 µM (inactive)	> 75 µM (inactive)	> 75 µM (inactive)	> 75 µM (inactive)	> 75 µM (inactive)	> 75 µM (inactive)	> 75 µM (inactive)	> 75 µM (inactive)	> 75 µM (inactive)	> 75 µM (inactive)	> 75 µM (inactive)		> 75 µM (inactive)
CCCCN(CCCC)CC(=O)c1ccc2cc(Cl)c3ccccc3c2c1	20.4 µM (inactive)	29.5 µM (inactive)			22.9 µM	24.1 µM (inactive)	17.4 µM (inactive)	24.9 µM (inactive)	32 µM (inactive)	99.3 µM (inactive)	24.2 µM (inactive)	17.9 µM (inactive)	33.7 µM (inactive)	32.6 µM (inactive)	14.9 µM (inactive)	25.3 µM (inactive)		19.6 µM (inactive)		67.3 µM (inactive)
CN1CN(c2ccccc2)C2(CCNCC2)C1=O	> 100 µM (inactive)	> 100 µM (inactive)			> 100 µM	> 100 µM (inactive)	> 100 µM (inactive)	> 100 µM (inactive)	> 100 µM (inactive)	> 100 µM (inactive)	> 100 µM (inactive)	> 100 µM (inactive)	> 100 µM (inactive)	> 100 µM (inactive)	> 100 µM (inactive)	> 100 µM (inactive)	> 100 µM (inactive)	> 100 µM (inactive)		> 100 µM (inactive)
Cc1cc2c(cc1C)[n+]([O-])c(C#N)c(Cl)[n+]2[O-]	10.5 µM (inactive)	6.46 µM (inactive)			4.35 µM	7.78 µM (inactive)	4.44 µM (inactive)	10.3 µM (inactive)		15.8 µM (inactive)	13.9 µM (inactive)	11.9 µM (inactive)	34.3 µM (inactive)	11.7 µM (inactive)	6.92 µM (inactive)	21.7 µM (inactive)	14.1 µM (inactive)	13.8 µM (inactive)		6.59 µM (inactive)
COc1ccccc1/C=C(\C#N)c1ccccc1	59.4 µM (inactive)	16.6 µM (inactive)	28.1 µM (inactive)	16.8 µM (inactive)	18.4 µM		29.9 µM (inactive)	11.4 µM (inactive)	18.5 µM (inactive)		30.2 µM (inactive)	16.7 µM (inactive)		44.9 µM (inactive)	15.6 µM (inactive)	3.13 µM (inactive)	45.5 µM (inactive)	24.6 µM (inactive)		
C1CSCCSCSCCS1	> 100 µM (inactive)	> 100 µM (inactive)			> 100 µM		> 100 µM (inactive)		> 100 µM (inactive)	> 100 µM (inactive)	> 100 µM (inactive)	> 100 µM (inactive)	> 100 µM (inactive)	> 100 µM (inactive)	> 100 µM (inactive)	> 100 µM (inactive)	> 100 µM (inactive)	> 100 µM (inactive)		> 100 µM (inactive)
Cn1c(=O)c(-c2ccccc2)c(N=[N+]=[N-])c2ccccc21	30.8 µM (inactive)	29.4 µM (inactive)			39.4 µM		23.5 µM (inactive)	34.8 µM (inactive)	37.8 µM (inactive)	28.4 µM (inactive)	56.5 µM (inactive)	53.2 µM (inactive)	> 100 µM (inactive)	42.3 µM (inactive)	44 µM (inactive)	67 µM (inactive)	66.4 µM (inactive)	34.8 µM (inactive)		
CCCCNC(=O)N/C=C1\C(=O)Oc2ccccc2C1=O	24.5 µM (inactive)			76.6 µM (inactive)	28.8 µM	22.1 µM (inactive)	> 100 µM (inactive)				57.3 µM (inactive)	> 100 µM (inactive)	26.5 µM (inactive)	33.4 µM (inactive)	> 100 µM (inactive)	32.7 µM (inactive)	30.1 µM (inactive)		14.1 µM (inactive)	> 100 µM (inactive)
c1cncc(O[Si](Oc2cccnc2)(Oc2cccnc2)Oc2cccnc2)c1		> 100 µM (inactive)	> 100 µM (inactive)	> 100 µM (inactive)	> 100 µM		> 100 µM (inactive)		> 100 µM (inactive)		> 100 µM (inactive)	> 100 µM (inactive)	> 100 µM (inactive)	> 100 µM (inactive)	> 100 µM (inactive)	> 100 µM (inactive)	> 100 µM (inactive)	> 100 µM (inactive)	> 100 µM (inactive)	> 100 µM (inactive)
C[C@@H]1CC[C@H]2[C@H]1[C@H]1[C@@H](CC[C@]2(C)N=C=S)C1(C)C		37.8 µM (inactive)			27.8 µM	19.1 µM (inactive)	19.9 µM (inactive)	16.2 µM (inactive)	17 µM (inactive)	21.7 µM (inactive)	44.9 µM (inactive)	17.5 µM (inactive)	> 10 µM (inactive)	21.8 µM (inactive)	18.5 µM (inactive)	17.7 µM (inactive)	21.1 µM (inactive)	16.7 µM (inactive)		
C=CCOC(=O)Cn1ccc(=O)[nH]c1=O	> 100 µM (inactive)	> 100 µM (inactive)			> 100 µM	> 100 µM (inactive)	> 100 µM (inactive)	> 100 µM (inactive)	> 100 µM (inactive)	> 100 µM (inactive)		> 100 µM (inactive)	> 100 µM (inactive)	> 100 µM (inactive)	> 100 µM (inactive)	> 100 µM (inactive)	> 100 µM (inactive)	> 100 µM (inactive)		> 100 µM (inactive)
C#Cc1cccc(N2C(=O)c3c(c(-c4ccccc4)c(-c4ccc(Cc5ccc(-c6c(-c7ccccc7)c7c(c(-c8ccccc8)c6-c6ccccc6)C(=O)N(c6cccc(C#C)c6)C7=O)cc5)cc4)c(-c4ccccc4)c3-c3ccccc3)C2=O)c1	15.9 µM (inactive)		32.9 µM (inactive)	52.2 µM (inactive)	7.85 µM	22.3 µM (inactive)	51.4 µM (inactive)	16.9 µM (inactive)	25.6 µM (inactive)		> 100 µM (inactive)	21.9 µM (inactive)	40 µM (inactive)	5.6 µM (inactive)	27 µM (inactive)		> 100 µM (inactive)	33 µM (inactive)	22.8 µM (inactive)	51.2 µM (inactive)
COc1ccc(C(=O)CC(c2ccccc2)[C@H]2C(c3ccc(OC)cc3)=Nc3c(nc(SC)n(C)c3=O)NC2c2ccccc2)cc1 (some centres undefined)		> 100 µM (inactive)			> 100 µM		> 100 µM (inactive)	> 100 µM (inactive)	> 100 µM (inactive)	> 100 µM (inactive)		41.3 µM (inactive)	> 100 µM (inactive)	> 100 µM (inactive)	> 100 µM (inactive)	> 100 µM (inactive)	> 100 µM (inactive)	> 100 µM (inactive)		> 100 µM (inactive)
N#Cc1ccc(C2Oc3ccc(Cl)cc3C=C2[N+](=O)[O-])cc1 (centres undefined)	1.67 µM (inactive)	1.52 µM (inactive)			1.07 µM	0.841 µM (active)	2.4 µM (inactive)	0.354 µM (active)	1.9 µM (inactive)		1.79 µM (inactive)	1.38 µM (inactive)	2.67 µM (inactive)	1.63 µM (inactive)	0.74 µM (active)	10.6 µM (inactive)	1.82 µM (inactive)	1.74 µM (inactive)		1.75 µM (inactive)
SC1=Nc2ccccc2-c2nc(-c3ccccc3)cc(-c3ccc(Br)cc3)c2C1		1.5 µM (inactive)			3.54 µM	18.4 µM (inactive)	2.07 µM (inactive)	2.9 µM (inactive)	12 µM (inactive)	1.56 µM (inactive)	0.433 µM (active)	8.3 µM (inactive)	1.21 µM (inactive)	2.26 µM (inactive)	2.66 µM (inactive)	3.18 µM (inactive)	11.2 µM (inactive)	0.982 µM (active)		1.33 µM (inactive)
